This passage reports IC50 and inhibition results from ChEMBL document CHEMBL2401688, “Phosphinic acid-based inhibitors of tubulin polyglutamylases” (Bioorg Med Chem Lett, 2013).

As a reminder, the pIC50 is the negative decadic logarithm of the IC50, by convention in mol/L.

SMILES strings stand for the structures. pIC50: −log10 of the molar value. Calls of active or inactive are those of the source. The rule behind the calls is not given here.

Experiment [1] is described as follows: Inhibition of Escherichia coli MurD ligase.
Experiment [2] deals with T1, Tubulin--tyrosine ligase (Homo sapiens) (UniProt Q8NG68).
T1 sequence (whole entry): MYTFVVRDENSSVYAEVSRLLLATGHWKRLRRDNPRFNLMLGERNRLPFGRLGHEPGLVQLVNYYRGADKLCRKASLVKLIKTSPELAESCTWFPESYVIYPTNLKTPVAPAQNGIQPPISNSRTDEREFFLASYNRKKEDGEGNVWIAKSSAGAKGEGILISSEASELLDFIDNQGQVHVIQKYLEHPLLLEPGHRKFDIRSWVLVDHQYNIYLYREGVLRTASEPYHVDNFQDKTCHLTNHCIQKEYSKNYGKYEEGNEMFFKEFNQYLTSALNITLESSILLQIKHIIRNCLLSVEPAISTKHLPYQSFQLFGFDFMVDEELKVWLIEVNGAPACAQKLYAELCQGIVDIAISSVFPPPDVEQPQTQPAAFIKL
Nature of the experiment: Inhibition of TTL (unknown origin).

Experiment [3] concerns the target T2, Tubulin polyglutamylase TTLL7 (Mus musculus) (UniProt A4Q9F0).
T2 sequence (whole entry): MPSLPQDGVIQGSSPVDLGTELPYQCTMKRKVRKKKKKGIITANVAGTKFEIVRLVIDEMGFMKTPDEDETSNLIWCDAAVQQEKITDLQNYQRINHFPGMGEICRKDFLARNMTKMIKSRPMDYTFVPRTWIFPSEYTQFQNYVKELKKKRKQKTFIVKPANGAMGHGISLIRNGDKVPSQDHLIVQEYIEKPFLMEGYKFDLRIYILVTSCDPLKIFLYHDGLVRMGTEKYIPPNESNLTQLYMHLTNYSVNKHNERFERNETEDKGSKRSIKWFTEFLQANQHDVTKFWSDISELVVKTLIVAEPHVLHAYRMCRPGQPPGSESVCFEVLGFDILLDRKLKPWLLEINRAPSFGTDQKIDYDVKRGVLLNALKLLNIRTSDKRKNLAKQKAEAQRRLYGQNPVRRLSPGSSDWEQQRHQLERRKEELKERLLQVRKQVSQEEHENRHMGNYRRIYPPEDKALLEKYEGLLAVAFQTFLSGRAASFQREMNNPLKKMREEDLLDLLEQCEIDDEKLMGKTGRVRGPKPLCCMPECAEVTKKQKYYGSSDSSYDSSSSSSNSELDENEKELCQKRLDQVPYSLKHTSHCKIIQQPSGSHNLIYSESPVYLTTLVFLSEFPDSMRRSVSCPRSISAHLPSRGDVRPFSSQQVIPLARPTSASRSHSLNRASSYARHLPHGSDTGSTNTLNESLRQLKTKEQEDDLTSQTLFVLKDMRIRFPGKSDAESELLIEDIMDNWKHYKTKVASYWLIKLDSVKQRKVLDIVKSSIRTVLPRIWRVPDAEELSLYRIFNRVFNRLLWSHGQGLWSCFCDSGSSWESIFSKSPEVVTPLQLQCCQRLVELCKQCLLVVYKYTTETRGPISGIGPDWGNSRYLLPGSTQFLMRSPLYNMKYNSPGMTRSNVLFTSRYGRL
The experiment is described as follows: (§1) Inhibition of mouse recombinant N-terminal GST-tagged TTLL7-mediated Ac-DATAEEEGEFEEEAEEEVA glutamylation expressed in Escherichia coli Rosetta2 DE3 after 16 hrs by LC-MS analysis.

In experiment [4] the target is T3, Tubulin polyglutamylase TTLL7 (Mus musculus, UniProt A4Q9F0).
T3 sequence (A4Q9F0 whole entry): T2 sequence (whole entry)
The description is as §1.

On to `CC(NC(=O)CCCCCOP(=O)(O)OP(=O)(O)OC[C@H]1O[C@@H](n2ccc(=O)[nH]c2=O)[C@H](O)[C@@H]1O)P(=O)(O)CC(CCC(=O)O)C(=O)O` (stereo partly drawn), for which the pIC50 in experiment [1] is 6.15. Regarding `CC(=O)N[C@@H](CCP(=O)(O)CC(CCC(=O)O)C(=O)O)C(=O)O` (mixture of isomers), the inhibition result in experiment [2] is “inactive”. The inhibition result in experiment [3] was “Active”. With `CC(=O)NC(CCC(=O)O)P(=O)(O)CC(CCC(=O)O)C(=O)O` (mixture of isomers), the inhibition result in experiment [2] was “inactive”. For the same molecule, the pIC50 in experiment [4] was 3.82. In the case of `CCNC(=O)[C@H](CCP(=O)(O)CC(CCC(=O)O)C(=O)O)NC(C)=O` (mixture of isomers), the inhibition result in experiment [2] was “inactive”. In addition, the inhibition result in experiment [3] was “Active”.

Molecule `CC(=O)N[C@H]1[C@@H](OP(=O)(O)OP(=O)(O)OC[C@H]2O[C@@H](n3ccc(=O)[nH]c3=O)[C@H](O)[C@@H]2O)O[C@H](CO)[C@@H](O)[C@@H]1O[C@H](C)C(=O)N[C@@H](C)P(=O)(O)CC(CCC(=O)O)C(=O)O` (stereo partly drawn) had a pIC50 in experiment [1] of 9.00.
